The values below come from patent US20230085307A1, “PYRIDAZINONE COMPOUND AND HERBICIDE” (NISSAN CHEMICAL CORPORATION, priority 2019, published 2023).

One assay deals with late watergrass. Kind of assay: Test Example 1: herbicidal activity, application before weed generation under submerged conditions (Table 16, symbol A). The note with it: amount of applied herbicide 320 g/ha. In kind it is in vivo, late watergrass (Echinochloa oryzicola). The method in brief: (§1)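 Submerged Wagner pots (alluvial soil, 4 cm water) sown with weed seeds and planted with 2.5-leaf rice seedlings; emulsifiable concentrate diluted in water applied to water surface on sowing day. Held in greenhouse at 25-30 °C; injury scored 0-5 by herbicidal rate after three weeks.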

The test system of assay [1] is Japanese bulrush. Kind of assay: Test Example 1: herbicidal activity, application before weed generation under submerged conditions (Table 16, symbol B). The format is in vivo, Japanese bulrush (Schoenoplectus juncoides). The note with it: amount of applied herbicide 320 g/ha. The method in brief:
as §1

Assay [2] deals with Japanese bulrush. Description: Test Example 2: herbicidal activity, application during weed generation under submerged conditions (Table 17, symbol B). The format is in vivo, Japanese bulrush (Schoenoplectus juncoides). The note with it: AAH 320 g/ha; application during weed generation, submerged conditions. The method in brief: (§2)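 In this pot test, flooded alluvial soil (water depth 4 cm) holds all three species sown as a mixture. Once seedlings have one to two leaves, the compound's emulsion, thinned with water to the intended dose, is poured on the water; grading follows after three weeks on the earlier criteria.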

A further assay relates to oval-leafed pondweed. Kind of assay: Test Example 2: herbicidal activity, application during weed generation under submerged conditions (Table 17, symbol C). The format is in vivo, oval-leafed pondweed (Monochoria vaginalis). The note with it: AAH 320 g/ha; application during weed generation, submerged conditions. The method in brief:
as §2

The next assay relates to southern crabgrass. Kind of assay: Test Example 4: herbicidal effect by soil treatment (Table 19, symbol F). The format is in vivo, southern crabgrass (Digitaria ciliaris). The note with it: amount of applied herbicide 320 g/ha. The method in brief:
(§3)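 Pre-emergence style soil spray: seeds under ~1.5 cm sterilized diluvial soil received a uniform coat of emulsion diluted to the predetermined herbicide amount. Greenhouse 25–30° C; readout at week three on previously defined criteria.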

Assay [3] concerns barnyard grass. Description: Test Example 4: herbicidal effect by soil treatment (Table 19, symbol H). In kind it is in vivo, barnyard grass (Echinochloa crus-galli). The note with it: amount of applied herbicide 320 g/ha. The method in brief:
as §3

In assay [4] the test system is wild oat. Kind of assay: Test Example 4: herbicidal effect by soil treatment (Table 19, symbol I). In kind it is in vivo, wild oat (Avena fatua). The note with it: amount of applied herbicide 320 g/ha. The method in brief: as §3
In assay [5] the test system is blackgrass. Description: Test Example 4: herbicidal effect by soil treatment (Table 19, symbol J). The note with it: amount of applied herbicide 320 g/ha. The format is in vivo, blackgrass (Alopecurus myosuroides). The method in brief: as §3
Another assay has as its system Italian ryegrass. Kind of assay: Test Example 4: herbicidal effect by soil treatment (Table 19, symbol K). The note with it: amount of applied herbicide 320 g/ha. The format is in vivo, Italian ryegrass (Lolium multiflorum). The method in brief: as §3
The test system of assay [6] is redroot pigweed. Description: Test Example 4: herbicidal effect by soil treatment (Table 19, symbol N). The note with it: amount of applied herbicide 320 g/ha. In kind it is in vivo, redroot pigweed (Amaranthus retroflexus). The method in brief: as §3
In the next assay the test system is green foxtail. Kind of assay: Test Example 5: herbicidal effect by foliage application, plastic box (Table 20, symbol G). In kind it is in vivo, green foxtail (Setaria viridis). The note with it: foliage application, 320 g/ha, three weeks after application. The method in brief:
(§4)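 Plants were sown into sterilized diluvial soil under about 1.5 cm cover and kept in a greenhouse at 25° C. to 30° C. Fourteen days on, foliage received an even spray of the diluted emulsion. Herbicidal or crop effect was judged three weeks afterwards.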

Assay [7] deals with barnyard grass. Kind of assay: Test Example 5: herbicidal effect by foliage application, plastic box (Table 20, symbol H). In kind it is in vivo, barnyard grass (Echinochloa crus-galli). The note with it: foliage application, 320 g/ha, three weeks after application. The method in brief:
as §4

Assay [8] relates to wild oat. Kind of assay: Test Example 5: herbicidal effect by foliage application, plastic box (Table 20, symbol I). In kind it is in vivo, wild oat (Avena fatua). The note with it: foliage application, 320 g/ha, three weeks after application. The method in brief: as §4
Assay [9] concerns blackgrass. Description: Test Example 5: herbicidal effect by foliage application, plastic box (Table 20, symbol J). The format is in vivo, blackgrass (Alopecurus myosuroides). The note with it: foliage application, 320 g/ha, three weeks after application. The method in brief: as §4
For assay [10], the system named is redroot pigweed. Description: Test Example 5: herbicidal effect by foliage application, plastic box (Table 20, symbol N). The note with it: foliage application, 320 g/ha, three weeks after application. In kind it is in vivo, redroot pigweed (Amaranthus retroflexus). The method in brief: as §4
A further assay concerns chickweed. Description: Test Example 5: herbicidal effect by foliage application, plastic box (Table 20, symbol P). The format is in vivo, common chickweed (Stellaria media). The note with it: foliage application, 320 g/ha, three weeks after application. The method in brief:
as §4

A further assay deals with false cleavers. Description: Test Example 5: herbicidal effect by foliage application, plastic box (Table 20, symbol Q). The format is in vivo, false cleavers (Galium spurium). The note with it: foliage application, 320 g/ha, three weeks after application. The method in brief: as §4

Turning to `CCCC(=O)Oc1c(C)nn(C)c(=O)c1-c1c(-c2ccc(OC(C)C)cc2)sc2cc(F)ccc12` [3-020], the “Herbicidal effect, A: late watergrass” value in the assay with late watergrass is 3 (Herbicidal rate of 40% or more and less than 70%). The “Herbicidal effect, B: Japanese bulrush” value in the assay with Japanese bulrush [1] was 3 (Herbicidal rate of 40% or more and less than 70%). Also, the “herbicidal effect rating, B: Japanese bulrush” value in the assay with Japanese bulrush [2] is listed as 0 (Herbicidal rate of 5% or less (almost no effect)). In addition, in the assay on oval-leafed pondweed, the “herbicidal effect rating, C: oval-leafed pondweed” value is 2 (Herbicidal rate of 20% or more and less than 40%). In addition, the “herbicidal effect, F: southern crabgrass” value with southern crabgrass is 0 (Herbicidal rate of 5% or less (almost no effect)). Further, the “herbicidal effect, H: barnyard grass” value in the assay on barnyard grass [3] was 0 (Herbicidal rate of 5% or less (almost no effect)). The “herbicidal effect, I: wild oat” value in the assay on wild oat [4] is 0 (Herbicidal rate of 5% or less (almost no effect)). Besides, in the assay with blackgrass [5], the “herbicidal effect, J: blackgrass” value was 0 (Herbicidal rate of 5% or less (almost no effect)). The “herbicidal effect, K: Italian ryegrass” value with Italian ryegrass is 0 (Herbicidal rate of 5% or less (almost no effect)). Also, the “herbicidal effect, N: redroot pigweed” value in the assay on redroot pigweed [6] is 4 (Herbicidal rate of 70% or more and less than 90%). Also, the “G: green foxtail, herbicidal effect grade” value with green foxtail is recorded as 0 (Herbicidal rate of 5% or less (almost no effect)). For the same compound, the “H: barnyard grass, herbicidal effect grade” value in the assay on barnyard grass [7] was 2 (Herbicidal rate of 20% or more and less than 40%). Moreover, the “I: wild oat, herbicidal effect grade” value with wild oat [8] was 0 (Herbicidal rate of 5% or less (almost no effect)). The “J: blackgrass, herbicidal effect grade” value in the assay with blackgrass [9] is 2 (Herbicidal rate of 20% or more and less than 40%). For the same compound, the “N: redroot pigweed, herbicidal effect grade” value with redroot pigweed [10] is 4 (Herbicidal rate of 70% or more and less than 90%). Further, the “P: chickweed, herbicidal effect grade” value in the assay on chickweed was 5 (Herbicidal rate of 90% or more (almost completely withered)). Further, the “Q: false cleavers, herbicidal effect grade” value in the assay with false cleavers was 4 (Herbicidal rate of 70% or more and less than 90%).
As to `CCCC(=O)Oc1c(C)nn(C)c(=O)c1-c1c(-c2ccc3c(c2)OCCO3)oc2ccc(C)cc12` [9-013], the “Herbicidal effect, A: late watergrass” value in the assay with late watergrass is 3 (Herbicidal rate of 40% or more and less than 70%). Moreover, in the assay with Japanese bulrush [1], the “Herbicidal effect, B: Japanese bulrush” value is 4 (Herbicidal rate of 70% or more and less than 90%). The “herbicidal effect rating, B: Japanese bulrush” value in the assay on Japanese bulrush [2] was 0 (Herbicidal rate of 5% or less (almost no effect)). The “herbicidal effect rating, C: oval-leafed pondweed” value with oval-leafed pondweed is 5 (Herbicidal rate of 90% or more (almost completely withered)). For the same compound, the “F: southern crabgrass, herbicidal effect grade” value in the assay with southern crabgrass was 4 (Herbicidal rate of 70% or more and less than 90%). Also, in the assay on barnyard grass [3], the “H: barnyard grass, herbicidal effect grade” value is 1 (Herbicidal rate of 5% or more and less than 20%). In addition, the “I: wild oat, herbicidal effect grade” value in the assay with wild oat [4] is reported as 0 (Herbicidal rate of 5% or less (almost no effect)). In the assay on blackgrass [5], the “J: blackgrass, herbicidal effect grade” value is given as 0 (Herbicidal rate of 5% or less (almost no effect)). The “K: Italian ryegrass, herbicidal effect grade” value in the assay with Italian ryegrass is given as 0 (Herbicidal rate of 5% or less (almost no effect)). In the assay with redroot pigweed [6], the “N: redroot pigweed, herbicidal effect grade” value was 3 (Herbicidal rate of 40% or more and less than 70%). Besides, the “herbicidal effect on green foxtail (G)” value with green foxtail was 0 (Herbicidal rate of 5% or less (almost no effect)). In addition, in the assay on barnyard grass [7], the “herbicidal effect on barnyard grass (H)” value is recorded as 0 (Herbicidal rate of 5% or less (almost no effect)). Moreover, the “herbicidal effect on wild oat (I)” value in the assay on wild oat [8] is 0 (Herbicidal rate of 5% or less (almost no effect)). Further, the “herbicidal effect on blackgrass (J)” value with blackgrass [9] is listed as 0 (Herbicidal rate of 5% or less (almost no effect)). In addition, the “herbicidal effect on false cleavers (Q)” value with false cleavers is given as 0 (Herbicidal rate of 5% or less (almost no effect)).
